Measurements published in patent US10421769B2, “Anticancer property studies of chiral palladium N-heterocyclic carbene complexes and process for preparation thereof” (Indian Institute of Technology Bombay, priority 2017, dated 2019).
“Also recorded” adds a separate entry of the source.

Key:
[1] = system: HeLa cells; assay: Sulforhodamine B assay, proliferation of HeLa cells; assay type: cell-based, human; conditions: for IC50: HeLa cervical cancer cells, 24 h, SRB
Description: (§1) The present invention further provides a Sulforhodamine B assay method for investigating the anti-cancer efficacies of the compounds of the present Pd—NHC series on MCF-7, HeLa, A549, B16-F10 and EMT6/AR1 cancer cell lines and also for a comparative study on normal skin cell line L929 and normal epithelial breast cells MCF10A. The said Sulforhodamine B assay is conducted as per reported method (Skehan et al., J. Natl. Cancer Inst. 1990, 82, 1107).
Experiment: The anti-proliferative activity of the present palladium N-heterocyclic carbene complexes on two different cancer cell lines MCF-7 and HeLa is tested using Sulforhodamine B assay to reveal their anti-tumor properties. The evaluation of growth inhibition of these complexes is done from their IC50 values for the inhibition of cell growth. The IC50 values are compared with Cisplatin to determine any increase in efficacy.
The seeded cells in 96-well plates are incubated with the complex for 24 h and the assay is performed.
The data obtained is graphically represented in accompanying FIG. 2.

[2] = system: A549 cells; assay: Sulforhodamine B assay, A549 lung cancer cells; assay type: cell-based, human; conditions: SRB
Description: as §1

[3] = system: B16-F10 cells; assay: Sulforhodamine B assay, B16-F10 skin cancer cells; assay type: cell-based, mouse; conditions: SRB
Description: as §1

[4] = system: EMT6/AR1 cells; assay: Sulforhodamine B assay, multidrug resistant EMT6/AR1 cells; assay type: cell-based, mouse; conditions: EMT6/AR1 multidrug resistant mammary cancer cells, SRB
Description: as §1

[5] = system: L929 cells; assay: Sulforhodamine B assay, normal skin cells L929 (selectivity); assay type: cell-based; conditions: L929 IC50 against B16-F10 IC50
Description: as §1

[6] = system: MCF10A cells; assay: Sulforhodamine B assay, normal epithelial breast cells MCF10A (selectivity); assay type: cell-based; conditions: MCF10A IC50 against MCF-7 IC50
Description: as §1

[7] = system: PARP-1 in MCF-7 cells; assay: Western blot analysis for PARP cleavage; assay type: cell-based, human; conditions: MCF-7, 4 and 8 μM, 48 h; cisplatin 4 μM as comparison
Description: Experiment: MCF-7 cells (5 mL) were seeded at a density of 1.5×10^5 cells/mL in 60 mm cell culture dishes. After cell attachment, they were incubated with 4 and 8 μM (1R,2R,5S)-1c and 4 μM cisplatin for 48 h. The cells were then processed and the whole cell lysate was isolated. An equal amount of total protein was resolved on SDS-PAGE and electroblotted onto a PVDF membrane (Millipore). Immunoblotting was performed using specific antibodies against PARP-1 and β-actin. The blots were developed by chemiluminescence using HRP conjugated secondary IgG.

[8] = system: γ-H2AX in MCF-7 cells; assay: Immunofluorescence microscopy for DNA damage (γ-H2AX); assay type: cell-based, human; conditions: MCF-7, 4 and 8 μM, 36 h; cisplatin 4 μM as comparison
Description: Experiment: MCF-7 (5×10^4 cells/well) cells were seeded on glass cover slip in a 24 well cell culture plate. After the cell were attached, they were incubated with 4 and 8 μM (1R,2R,5S)-1c and 4 μM cisplatin for 36 h, fixed with 3.7% formaldehyde and processed for immunostaining. After fixing, cells were blocked with 2% BSA and incubated with anti-γ H2AX IgG (1:200) for 2 h at 37° C. followed by Alexa flour 555 goat anti-rabbit secondary IgG (1:400) for 1 h at 37° C. Hoechst 33258 was used to stain the DNA. Immunofluorescence imaging was performed using iPlan-apochromat 40×/1.3 NA oil immersion objective in Confocal Laser Scanning microscope. Image J software was used to calculate the fluorescence intensity. 500 cells were scored in each case.

[9] = system: intracellular ROS in MCF-7 cells; assay: Reactive oxygen species (ROS) assay using H2DCFDA, flow cytometry; assay type: cell-based, human; conditions: 24 h
Description: Experiment: Reactive oxygen species (ROS) production in cells when treated with (1R,2R,5S)-1c, was estimated by ROS assay using 2′,7′-dichlorodihydrofluorescein diacetate (H2DCFDA). MCF-7 cells (5 mL) were seeded in 60 mm cell culture dishes at a density of 1.5×10^5 cells/mL. After cell attachment, they were incubated with 4 and 8 μM (1R,2R,5S)-1c for 24 h. Cells treated with 30 μM hydrogen peroxide was used as a positive control. Following 24 h of incubation, the cells were processed and analyzed using flow cytometry. The percentage of DCFH-DA positive MCF-7 cells in the absence and presence 4 and 8 μM (1R,2R,5S)-1c was determined by flow cytometry. 30 μM H2O2 was used as a positive control. Data are average of three independent set of experiments and ±indicates S.D.

[10] = system: MCF-7 cells; assay: Cell cycle analysis by flow cytometry (PI); assay type: cell-based, human; conditions: 36 h
Description: (§2) Experiment: MCF-7 cells (5 mL) were seeded in 60 mm cell culture dishes at a density of 1.5×10^5 cells/mL. The cells were incubated with 2 and 4 μM (1R,2R,5S)-1c for 36 h for cell cycle analysis. After the required incubation, cells were processed and analyzed by flow cytometry. Cell cycle data was analyzed using Flow Jo software. Cell cycle analysis and mitotic indices of MCF-7 cells in the absence and presence 2 and 4 μM (1R,2R,5S)-1c. Cell cycle analysis was done using flow cytometer after incubating the cells with PI. The data was analyzed using Flow Jo software. Data were average of three independent set of experiments with S.D (±). Mitotic index (percentage of cells in mitosis) was calculated based on DNA morphology of cells stained with Hoechst 33258. Data were average of three independent set of experiments with S.D (±). 1000 cells were scored in each set.

[11] = system: MCF-7 cells; assay: Mitotic index from DNA morphology (Hoechst 33258); assay type: cell-based, human
Description: as §2

## trans-[1-(1R)-menthyl-4-(ethyl)-1,2,4-triazol-5-ylidene]2Pd(OCOCF3)2 [(1R,2R,5S)-1c]
[1]; HeLa
  IC50 of Cisplatin against HeLa as multiple of IC50 of the complex: around 4 times
[1]; listed as drawing 41
  IC50: 2.3 ± 1 µM
[1]; listed as drawing 48
  IC50: 2.3 ± 1 µM
[2]
  IC50: 5.7 ± 1.6 µM
[3]
  IC50: 1.3 ± 0.4 µM
[4]
  IC50: 4.8 ± 0.3 µM
[5]
  times more selective towards the cancer cells (B16-F10 vs L929): around 8.1 times
[6]
  times more selective towards the cancer cells (MCF-7 vs MCF10A): around 16 times
[7]
  PARP cleavage (in words): more pronounced than cisplatin; also recorded: cleaves PARP in MCF-7 cells
[8]
  DNA damage, γ-H2AX immunostaining (in words): stronger DNA damaging effect on MCF-7 cells than cisplatin; also recorded: more DNA damage than compared to Cisplatin; also recorded: causes DNA damage in MCF-7 cells
[9]; MCF-7, 4 μM
  % of DCFH-DA positive cells: 49 ± 11%
[9]; MCF-7, 8 μM
  % of DCFH-DA positive cells: 74 ± 1%
[9]; MCF-7, 4 and 8 μM
  Intracellular ROS generation (in words): leads ROS production in cells; also recorded: ROS is generated in MCF-7 cells
[10]; MCF-7, 2 μM
  % of cells in different phases of cell cycle: G1: 30 ± 2%
  % of cells in different phases of cell cycle: G2/M: 35 ± 2%
  % of cells in different phases of cell cycle: S: 31 ± 2%
[10]; MCF-7, 4 μM
  % of cells in different phases of cell cycle: G1: 18 ± 2%
  % of cells in different phases of cell cycle: G2/M: 50 ± 2%
  % of cells in different phases of cell cycle: S: 32 ± 3%
[10]; MCF-7, 2 and 4 μM
  Cell cycle block (in words): blocks MCF-7 cells at the G2 phase; also recorded: blocked cells at the G2/M phase
[11]; MCF-7, 2 μM
  Mitotic Index (percentage of cells in mitosis): 3 ± 1%
[11]; MCF-7, 4 μM
  Mitotic Index (percentage of cells in mitosis): 3.2 ± 1%
[11]; MCF-7, Hoechst 33258 DNA morphology
  Arrest at mitosis (in words): did not arrest cells at mitosis
